Drawing on PubChem BioAssay (NCI), this text covers GI50 and TGI for 10 compounds.

Values joined by “and” are separate entries in the source; they are usually repeats but may differ in a detail not shown here. Equal entries are not always repeated.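 All cell lines were grown in 96-well plates and treated with compound for 48 hours. At the GI50, growth is halved. The concentration for full growth arrest is given as TGI.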 Where a SMILES comes first, the peptide text is derived from it. Bridges are numbered along the chain shown (N, C = ends). [ ]: non-standard residue; d: D form. aThr = C[C@H](O)[C@H](N)C(=O)O

Holding throughout (experiment): NCI anticancer screen, dose series, 48 h
In assay [1] the test system is HS 578T breast.
For assay [2], the system named is T-47D breast.
Assay [3] has as its system NCI-H226 lung.
Assay [4] has as its system NCI-H23 lung.
Assay [5] has as its system HOP-62 NSCLC.
The test system of assay [6] is M14 melanoma.
Assay [7] concerns SNB-19 CNS.
In assay [8] the test system is EKVX NSCLC.

As for `CN(C)c1ccc(-c2cc(-c3ccc(Nc4nc(Nc5ccc(Cl)cc5)nc(Nc5ccc(Cl)cc5)n4)cc3)nc(N)c2C#N)cc1`, the GI50 is 3.94 µM in assay [1]; 7.59 µM in assay [2]; 3.58 µM in assay [3]; 30.5 µM in assay [4]; greater than 100 µM in assay [5]; 18.3 µM in assay [6]. Also, the GI50 in assay [7] and in assay [8] was greater than 100 µM in each case. The TGI was 59.3 µM in assay [1]; greater than 100 µM in assay [2]; 24.4 µM in assay [3]; greater than 100 µM in assay [4]; greater than 100 µM in assay [5]; greater than 100 µM in assay [6]. Further, the TGI in assay [7] and in assay [8] was greater than 100 µM in each case.
In the case of `COc1ccc(/C=C2\CCC/C(=C\c3ccc(OC)c(OC)c3)C2=O)cc1OC`, the GI50 was 7.95 µM in assay [1]; 10.2 µM in assay [2]; 21.9 µM in assay [3]; 2.91 µM in assay [4]; 4.59 µM in assay [5]; 1.9 µM in assay [6]. The results for the GI50 in assay [7] and in assay [8] were 20.8 µM and 14 µM, respectively. In addition, the TGI in assay [1], in assay [2], in assay [3], in assay [4], in assay [5] and in assay [6] was greater than 32.5 µM in each case. Moreover, the TGI in assay [7] and in assay [8] was greater than 32.5 µM in each case.
Turning to `COC12C(COC(=O)NCCO)C3=C(C(=O)C(C)=C(N)C3=O)N1CC1NC12` (centres undefined), the TGI in assay [1] is greater than 264 µM; in assay [2], greater than 264 µM; in assay [3], 71 µM and 150 µM; in assay [4], 22.7 µM and 51.3 µM; in assay [5], 74.7 µM and 139 µM; in assay [6] it was greater than 264 µM. Besides, the TGI is 169 µM in assay [7] and greater than 264 µM in assay [8]. The GI50 was 30.2 µM in assay [3], 10.3 µM in assay [4], 28.4 µM in assay [5] and 49.9 µM in assay [6].
In the case of `CCC(c1ccccc1)c1noc(CCN(CC)CC)n1` (centres undefined), the GI50 in assay [1] was greater than 40.7 µM; in assay [2], 13.1 µM; in assay [3] it was 23.8 µM; in assay [4], 63.3 µM; in assay [5], 42.5 µM; in assay [6], 28.8 µM. For the same compound, the GI50 in assay [7] is greater than 78.4 µM; in assay [8], greater than 47 µM. Moreover, the TGI in assay [1] was greater than 72.8 µM; in assay [2], 76.2 µM; in assay [3], 70.9 µM; in assay [4], greater than 100 µM; in assay [5], greater than 100 µM; in assay [6] it was greater than 100 µM. The TGI was greater than 100 µM in assay [7] and greater than 91.3 µM in assay [8].
As for `C=CCN(CC=C)C(=O)c1cc(C)nc2c1c(=O)n(-c1ccccc1)c(=O)n2CCCN1CCN(c2ccccc2OC)CC1`, the GI50 in assay [1], in assay [2], in assay [3], in assay [4], in assay [5] and in assay [6] was greater than 50 µM throughout. The GI50 in assay [7] and in assay [8] was greater than 50 µM in each case. In addition, the TGI in assay [1], in assay [2], in assay [3], in assay [4], in assay [5] and in assay [6] was greater than 50 µM each time. For the same compound, the TGI in assay [7] and in assay [8] was greater than 50 µM throughout.
As to `C=C(CN1CCc2[nH]c3ccc(F)cc3c2C1)c1ccc(C(=O)Nc2ccccc2N)cc1`, the GI50 in assay [1] is 1.07 µM; in assay [2], 3.76 µM; in assay [3] it was 2.47 µM; in assay [4], 2.22 µM; in assay [5], 0.605 µM; in assay [6], 0.78 µM. Also, the GI50 is 3.73 µM in assay [7] and 5.06 µM in assay [8]. The TGI came out at 14.1 µM in assay [1]; 87.8 µM in assay [2]; 7.32 µM in assay [3]; 12.6 µM in assay [4]; 8.38 µM in assay [5]; 4.75 µM in assay [6]. Moreover, the TGI is 21.7 µM in assay [7] and 19.7 µM in assay [8].
Turning to `CC(C)C[C@@H]1NC(=O)[C@@H]2CCCN2C(=O)[C@@H]2CCCN2C(=O)[C@H](CC(C)C)NC(=O)[C@H](CO)NC(=O)[C@H](CCCCN)NC(=O)[C@H]([C@H](C)O)NC(=O)[C@@H]2CSSC[C@@H](NC1=O)C(=O)N[C@@H](Cc1ccccc1)C(=O)N1CCC[C@H]1C(=O)N[C@@H](CC(=O)O)C(=O)NCC(=O)N[C@@H](CCCN=C(N)N)C(=O)N2` (cyclo(C[aThr]KSLPPL[dC]FPDGR); disulfide 1-9), the GI50 in assay [1], in assay [2], in assay [3], in assay [4], in assay [5] and in assay [7] was greater than 50 µM throughout. Besides, the GI50 in assay [8] is greater than 50 µM. Moreover, the TGI in assay [1], in assay [2], in assay [3], in assay [4], in assay [5] and in assay [7] was greater than 50 µM each time. In addition, the TGI in assay [8] was greater than 50 µM.
As to `CCCCCCCCCCCCCCNC(=O)Nc1ccc(Cl)c(Cl)c1`, the GI50 is 3.14 µM in assay [1]; 3.17 µM in assay [2]; 3.21 µM in assay [3]; 2.86 µM in assay [4]; 2.77 µM in assay [5]; 2.89 µM in assay [6]. For the same compound, the GI50 is 4.16 µM in assay [7] and 1.97 µM in assay [8]. For the same compound, the TGI is 15 µM in assay [1]; greater than 30 µM in assay [2]; greater than 100 µM in assay [3]; 26.3 µM in assay [4]; greater than 23.1 µM in assay [5]; greater than 44.3 µM in assay [6]. Further, the TGI in assay [7] is greater than 100 µM; in assay [8], 6.15 µM.
With `Cc1noc(NC(=O)Nc2ccccc2F)c1C#N`, the TGI in assay [1] was greater than 56.4 µM; in assay [2], greater than 77.4 µM; in assay [3] it was greater than 100 µM; in assay [4], greater than 100 µM; in assay [5] it was greater than 100 µM; in assay [6] it was greater than 42.6 µM. Moreover, the TGI is greater than 50.3 µM in assay [7] and 25.1 µM in assay [8].
For the compound `CSc1nc2nc(-c3ccccc3)c(C)c-2c2n1C(C)C(=O)N2` (centres undefined), the GI50 in assay [1] was 77.5 µM; in assay [2], 29.8 µM; in assay [3], 35.7 µM; in assay [5], 44.7 µM; in assay [6] it was 38.6 µM; in assay [7] it was 38.5 µM. For the same compound, the GI50 in assay [8] is 65.7 µM. Further, the TGI in assay [1], in assay [2], in assay [3], in assay [5], in assay [6] and in assay [7] was greater than 100 µM each time. The same compound came in with a TGI in assay [8] greater than 100 µM.
